Results from US20240366577A1, “CONTROLLED LONG-TERM DRUG DELIVERY AND METHODS THEREOF” (THE JOHNS HOPKINS UNIVERSITY, priority 2021, published 2024).

Columns and labels:
[1] = test system: VE-Cdh, aSMact, Cd34; assay: qPCR of retrieved tumors: VE-Cdh, aSMact, Cd34; type: in vivo, BALB/c mice; conditions: crystals, compared to daily bolus; tumors at end of study
Procedure: To determine the anti-angiogenic efficacy of each sorafenib treatment group, qPCR gene expression analysis was performed on retrieved tumors at the conclusion of the study. In particular, analysis for levels of endothelial cell marker Cd31, vascular endothelial-cadherin (VE-Cdh), smooth muscle pericyte marker alpha Smooth Muscle actin (aSMact), and stem/progenitor cell marker Cd34 were conducted, as shown in FIG. 3F.
1 mL of TRIzol reagent (Cat#15596018, ThermoFisher) was added to 100 mg samples of tumor tissue and broken down with a power homogenizer (Polytron/VWR). Homogenized samples were incubated at room temperature for 5 min for complete nucleoprotein dissociation, then 0.2 ml of chloroform (Sigma) was added to each sample. Samples were shaken vigorously for 15 seconds and incubated at room temperature for 3 min before centrifuging at 12,000 g for 15 min at 4° C. The uppermost supernatant layer was pipetted into a 1.7 mL Eppendorf tube, with the remaining interphase and organic layer discarded. 0.5 mL of isopropanol (Sigma) was added to each sample, and then samples were incubated for 10 min. Samples were centrifuged at 12,000 g for 10 min at 4° C. […] Depending on size of resultant pellet, pellets were resuspended in 50-100 μL, and nucleic acid concentration was measured using a NanoDrop 2000 spectrophotometer (ThermoFisher). […]

[2] = test system: macrophage Cd68 and myeloid Cd11b; assay: qPCR of retrieved tumors: immune markers; type: in vivo, BALB/c mice; conditions: crystal treatment groups
[3] = test system: tumor endothelial CD31; assay: immunofluorescent staining of tumors: CD31; type: in vivo, BALB/c mice; conditions: single SC injection of 3 mg or 10 mg crystals, compared to daily bolus
Procedure: To confirm the effects seen at the level of RNA, immunofluorescent staining of excised tumor samples that were in parallel fixed with paraformaldehyde and embedded in paraffin was performed. […] Co-localization of CD31 with aSMact was, as expected, not linked in crystal sorafenib-treated tumors, where CD31 reduction was more extensive than with daily, bolus sorafenib.
Immunofluorescence imaging was used to determine anti-angiogenic drug efficacy. Tumor tissues were retrieved from mice and fixed overnight using 4% paraformaldehyde at 4° C. After fixation, retrieved tissue samples were moved to 70% ethanol. Samples were then processed for paraffin embedding, sectioning and staining. […] Next, tissues were incubated for 1 hour in an immunostaining cocktail solution consisting of NucBlue (Thermo), specific marker probes (1:200 dilution) anti-CD31 (Cat#DIA-310, HistoBioTec) and anti-alphaSmoothMuscle actin-Cy3 (Sigma) in Dako staining buffer. For CD31, a goat anti-rat alexa-fluor647 secondary antibody was also used (1:400). After staining, samples were rinsed again with 1X PBS three times prior to slides being cover slipped with Pro-long anti-fade Gold (Thermo). […] For stain quantification, images were converted into 8-bit image files, a background threshold was determined using NIH ImageJ, and then all images were processed using an NIH ImageJ macro to quantify the area of positive stain. […]

[4] = test system: choroidal neovascularization (CNV); assay: mouse laser-induced CNV model, fundus fluorescein angiography; type: in vivo; conditions: two intravitreal doses (14 days before and 1 day after laser) vs saline; p=0.0290 single lesion analysis
Text: Wet age-related macular degeneration (wet AMD) is a leading cause of blindness in the U.S. and globally, requiring effective treatments, particularly with the use of drugs or treatments that allow sustained management of the disease. Choroidal neovascularization (CNV), or pathologic angiogenesis, is the cause of the visual loss that occurs in wet AMD. Therefore, sorafenib is also a possible treatment for wet AMD, but the effect of the drug when delivered in a liquid form is brief. It has been shown that optimized crystal formulations of sorafenib providing sustained release have the potential to work over a longer period of time. As shown herein, the experiments tested the effect of intravitreal administration of crystal sorafenib vs. vehicle, in saline, of sorafenib in a mouse laser-induced CNV model. FIG. 5 depicts a timeline of an experimental procedure, in accordance with the present disclosure. Crystalline sorafenib, as described herein, was administered to two batches of mice. In the first batch of mice, 16 mice were injected, 14 days before a laser treatment and 1 day after laser treatment. In the second batch of mice, 13 mice were injected 7 days before laser treatment. FIGS. 6A-6D depict charts of fluorescent intensity as measured with the use of fundus fluorescein angiography (FFA), according to the present disclosure. […]

CNC(=O)c1cc(Oc2ccc(NC(=O)Nc3ccc(Cl)c(C(F)(F)F)c3)cc2)ccn1 [crystalline sorafenib, sorafenib]
knockdown of VE-Cdh, aSMact and Cd34 (qPCR) [1]: not as significant | Cd68 and Cd11b expression levels (qPCR) [2]: no significant changes | tumor endothelial CD31 levels (immunofluorescence) [3]: reduction is greater | CNV (FFA fluorescent intensity) [4]: appears to reduce CNV
